# Source: patent publication EP1101496A1, “THERAPEUTIC AGENTS FOR ALLERGIC DISEASES” (FUJI YAKUHIN KOGYO KABUSHIKI KAISHA, priority 1998, dated 2000)
# How the values were obtained:
# [1] = test system: Experimental Bronchial Asthma Model; assay: Experimental bronchial asthma model (ovalbumin-sensitized, airway resistance and asthmatic death); format: in vivo, Guinea pigs
# Experimental: Guinea pigs (female, Std:Hartley, 3 weeks old, 200 to 250 g) were individually housed in a plastic chamber (width, 200 mm; depth, 300 mm; height, 167 mm). Aqueous ovalbumin (10 mg/mL) was administered to the guinea pigs once a day for sensitization by 10 min. inhalation with a nebulizer (5B, Nippon Shoji K.K.: flow rate, 6 L/min.) at a dose of 10 mg/mL during 8 cosecutive days. On Day 7 after the final sensitization, the guinea pigs were housed in a plastic chamber and inhaled using a nebulizer with a solution of ovalbumin (10 mg/mL) in physiological saline for 1 min. for elicitation (Matsumoto, T., et al., The Journal of Pharmacology and Experimental Therapeutics, 269: 1236-1244, 1994). The number of animals employed in the experiment was set to the extent there are at least 6 as individuals escaping asthmatic death. A solution of a test metalloproteinase inhibitor (Compound No. 8, 15 mg/kg) in water for injection was administered subcutaneously twice, i.e., 24 hours and 2 hours prior to elicitation. Similarly, the solvent alone was also administered to a negative control group. A suspension of prednisolone (10 mg/kg) in 0.5% aqueous methyl cellulose was administered orally twice, i.e., 24 hours and 2 hours prior to elicitation. Similarly, the solvent alone was also administered to another control group.
# The evaluation for efficacies was conducted in terms of airway resistance. For this purpose, an apparatus dedicated to the measurement of airway resistance (K.K. Medical Agent) was employed. Measurement includes setting a guinea pig in a test chamber under a not-anesthetized condition, applying sinusoidal pressure waves of 30 Hz components to a part below the neck of the animal from the back side of the chamber, measuring respiratory waves of 30 Hz components leaking through the mouth (volume of 30 Hz air flow passing through the respiratory tract) in front of the neck, and calculating airway resistance mechanically. Measurement was carried out immediately prior to the first drug treatment (24 hours before elicitation), just prior to elicitation, 10 minutes, 1, 2, 4, 6, and 8 hours post-elicitation.
# It was visually observed by a person carrying out said test in terms of the appearance of cyanosis or suffocative death (asthmatic death) due to respiratory obstruction.
# Guinea pigs were sensitized with ovalbumin and asthma was induced on Day 7 after final sensitization in the same manner as in Example 18. The number of animals employed in the experiment was set to the extent there are at least 6 as individuals escaping asthmatic death (8 to 11 animals/group). In the same manner as in Example 18, the animals were measured for airway resistance mechanically and each percent change (%) in airway resistance was calculated (each value just prior to elicitation was set as 100%). Each percent amelioration in airway resistance was calculated from the percent changes in airway resistance according to the following formula: Amelioration in Airway Resistance (%) = 1 -[((Percent Change in Airway Resistance after Drug-Administration)-(Value just prior to Challenge (100)))/((Percent Change in Airway Resistance after Solvent -Administration)-(Value just prior to Challenge (100)))]× 100 [formula]
# A solution of a test metalloproteinase inhibitor (Compound No. 22: 15 mg/kg or 30 mg/kg) in water for injection or the solvent alone as a negative control was administered to each animal subcutaneously twice, i.e., 24 hours and 2 hours prior to elicitation.
# [2] = test system: Type IV Allergic Dermatitis; assay: Type IV allergic dermatitis (oxazolone-induced auricle edema); format: in vivo, Mice (male, Balb/c)
# Experimental: Mice (male, Balb/c, 6 weeks old, 20 to 25 g) were sensitized by painting a 3% solution of oxazolone (100 µL) abdominally. Six days after sensitization, a 0.5% solution of oxazolone in acetone was painted on both sides of a right ear at a dose of 10 µL to raise auricle edema. An untreated group was painted with the solvent (acetone) alone onto both sides of a left ear of the same mouse at 10 µL. At 24 hours after edema-induction, each mouse was sacrificed with ether and an equivalent each of right and left auricles was stamped out with a puncher (diameter: 6 mm). Both left and right auricle sections were measure for their weight and each percent edema was calculated (Kazuo Ouchi (Ed.), "Seibutsu Yakukagaku Jikken Koza, Ensho To Allergy (Inflammation and Allergy) I-1", 1993, Hirokawa Publishing Co., Japan) Percent Edema (%) =((Right Auricular Segment Weight - Left Auricular Segment Weight))/(Left Auricular Segment Weight)× 100 [formula]
# A solution of a test metalloproteinase inhibitor (Compound No. 8, 50 mg/mL) in ethanol was painted onto both sides of a right auricle at 10 µL per side twice, i.e., 0.5 hr prior to edema-induction and 6 hours after edema-induction. The solvent (ethanol) alone was painted on a left auricle at the same dose ([…]). […]
# Allergic Rhinitis = assay: Allergic rhinitis model (nasal airway resistance); format: in vivo, Guinea pigs; conditions: 15 mg/kg s.c. one hour prior to rhinitis-induction; 20 minutes after antigen-challenge
# Experimental: Guinea pigs (male, Std:Hartley, 3 weeks old) were housed and fed in a aluminum cage at a rate of up to 5 animals per cage. After acclimatization for 1 week, the guinea pigs were administered intravenously with an anti-ovalbumin antibody (Nihon Bioresearch Inc., Hajima Institute; antibody titer by a 3-hour homologous passive cutaneous anaphylaxis reaction, 1 : 8192) prepared according to the Orange & Moore method (Orange, R. P. and Moore, E. G., The Journal of Immunology 116: p.392-397, 1976) into their auricle vein at a dose of 0.3 mL/animal for passive sensitization. Twenty four to twenty six hours after sensitization under conditions of fast and free access to drinking water, the sensitized guinea pigs were anesthetized with urethane (1.2 g/kg, intraperitoneal administration), fixed in a supine position, and mediad excised cervically to expose tracheas. […] Variations of the ventilatory overflow were quantitatively recorded on a recticoder (RECTI-HORIZ-8K, Nippon Denki Sanei K.K.) for 20 minutes after antigen-challenge.
# Wave height (cm) was measured on recorded papers and a nasal airway resistance value was calculated according to the following formula: Percent Increase (%) in Nasal Airway Resistance =((Observed Value)-(Value prior to Administration))/((Complete Obstruction)-(Value prior to Administration))× 100 [formula] […]
# [3] = Body weight gain in sensitized mice (experimental atopic dermatitis model); format: in vivo; conditions: painted on auricles twice a day; Compound No. 8 50 µg/ear/dose, prednisolone 5 µg/ear/dose; Days 1, 4 and 7; versus solvent control (ethanol)
# Experimental: Experimental atopic dermatitis model mice sensitized in the same manner as in Example 1 were examined for influence on body weight gains.
# A solution of a test metalloproteinase inhibitor (Compound No. 8; 50 µg/ear/dose, twice a day) in ethanol or a solution of prednisolone (5 µg/ear/dose, twice a day) in ethanol was administered to mice (5 animals per group) by painting onto both sides of a pair of the auricles, not only one hour prior to elicitation but also 0.25, 3, 4, 5 and 6 days post-elicitation. Each mouse was measured for its body weight not only immediately before the start in painting but also on Days 1, 4 and 7 after the start in painting. Each gain in body weight was calculated and considered to indicate an effect on body weight changes affected by said treatments.
# [4] = suffocative death due to cyanosis just after elicitation, Compound No. 8 15 mg/kg s.c., prednisolone 10 mg/kg orally, 24 and 2 hours prior to elicitation
smiles,measurement,setting,value
"CNC(=O)[C@H](Cc1ccc(NC(=N)N)cc1)NC(=O)[C@H](CC(C)C)C(CCCc1ccccc1)C(=O)NO (single isomer, unassigned) [Compound No. 8, N-[4-(N-hydroxyamino)-2(R)-isobutyl-3(R or S)-(3-phenyltrimethylene)succinyl]-L-4'-guanidophenylalanine-N-methylamide 1 acetate]",airway resistance (FIG. 11),"[1]; 15 mg/kg s.c. 24 hours and 2 hours prior to elicitation, IAR 1 hour and LAR 6 hours post-elicitation",significant reduction of the increased airway resistance
same,% Mortality,[1]; [4],0.0%
same,(Dead Animals)/(Tested Animals),[1]; [4],0/10
same,therapeutic potency on the development of auricle edemas (FIG. 12),"[2]; 50 mg/mL in ethanol, 10 µL per side painted on right auricle 0.5 hr prior to and 6 hours after edema-induction, 24 hours after induction",amelioration of auricle edemas
same,"effect of the compound alone on auricles (unsensitized group, FIG. 12)","[2]; unsensitized mice, 50 mg/mL in ethanol painted on auricle",almost free of swelling and/or thinning
same,increase in nasal airway resistance due to antigen challenge (FIG. 14),Allergic Rhinitis,markedly ameliorates an increase in nasal airway resistance
same,gain in body weight (FIG. 9),[3],almost equivalent to that in the solvent control group
